In ChEMBL document CHEMBL1155403, “Simple and conveniently accessible bi-fluorescence-labeled substrates for amylases” (Bioorg Med Chem Lett, 2010):
Calls of active or inactive are those of the source. The rule behind the calls is not given here.

Biological target: T1, Alpha-amylase 1A (Homo sapiens) (UniProt P0DUB6)
T1 sequence (whole entry): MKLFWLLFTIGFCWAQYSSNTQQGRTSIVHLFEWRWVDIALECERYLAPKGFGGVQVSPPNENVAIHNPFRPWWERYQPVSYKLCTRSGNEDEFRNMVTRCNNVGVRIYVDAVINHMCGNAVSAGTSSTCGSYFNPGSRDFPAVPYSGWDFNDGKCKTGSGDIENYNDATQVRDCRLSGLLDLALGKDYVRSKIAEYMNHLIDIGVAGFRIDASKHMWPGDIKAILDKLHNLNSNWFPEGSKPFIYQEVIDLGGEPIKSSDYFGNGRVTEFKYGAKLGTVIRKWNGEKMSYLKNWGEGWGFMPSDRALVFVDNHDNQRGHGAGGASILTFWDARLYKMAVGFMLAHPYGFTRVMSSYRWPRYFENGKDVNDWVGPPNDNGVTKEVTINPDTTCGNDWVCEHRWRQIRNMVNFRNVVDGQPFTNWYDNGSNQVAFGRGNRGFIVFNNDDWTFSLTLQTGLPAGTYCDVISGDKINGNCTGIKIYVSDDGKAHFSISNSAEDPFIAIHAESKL
Test: Activity of human salivary alpha amylase by FRET assay

SMILES	Activity
CN(C)c1cccc2c(S(=O)(=O)NCCSCCCCCS[C@@H]3O[C@H](CO)[C@@H](O[C@H]4O[C@H](CO)[C@@H](O[C@H]5O[C@H](CO)[C@@H](O[C@H]6O[C@H](CO)[C@@H](O[C@H]7O[C@H](CO)[C@@H](O[C@H]8O[C@H](COCc9ccc%10ccccc%10c9)[C@@H](O)[C@H](O)[C@H]8O)[C@H](O)[C@H]7O)[C@H](O)[C@H]6O)[C@H](O)[C@H]5O)[C@H](O)[C@H]4O)[C@H](O)[C@H]3O)cccc12	Active
CN(C)c1cccc2c(S(=O)(=O)NCCSCCCCCS[C@@H]3O[C@H](CO)[C@@H](O[C@H]4O[C@H](COCc5ccc6ccccc6c5)[C@@H](O)[C@H](O)[C@H]4O)[C@H](O)[C@H]3O)cccc12	inactive
